# PubChem BioAssay (NCI)
#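 Protocol summary: plate cells (96-well), add compound at 5 concentrations, incubate 48 h, interpolate endpoints linearly. Abbreviation: GI50, concentration required for 50% inhibition of growth. Definition used: TGI = concentration required for complete inhibition of growth.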
# How the values were obtained:
# Assay in all cases: NCI tumour cell line growth inhibition, 48 h
# M14 melanoma = tested on: M14 melanoma
# HOP-92 NSCLC = tested on: HOP-92 NSCLC
# OVCAR-5 ovarian = tested on: OVCAR-5 ovarian
# NCI-H226 lung = tested on: NCI-H226 lung
# MCF7 breast = tested on: MCF7 breast
# MDA-MB-231 breast = tested on: MDA-MB-231 breast
# SK-OV-3 ovarian = tested on: SK-OV-3 ovarian
# EKVX NSCLC = tested on: EKVX NSCLC
# RPMI-8226 leukemia = tested on: RPMI-8226 leukemia
# SNB-75 CNS = tested on: SNB-75 CNS
SMILES,GI50 (M14 melanoma),TGI (M14 melanoma),GI50 (HOP-92 NSCLC),TGI (HOP-92 NSCLC),GI50 (OVCAR-5 ovarian),TGI (OVCAR-5 ovarian),GI50 (NCI-H226 lung),TGI (NCI-H226 lung),GI50 (MCF7 breast),TGI (MCF7 breast),GI50 (MDA-MB-231 breast),TGI (MDA-MB-231 breast),GI50 (SK-OV-3 ovarian),TGI (SK-OV-3 ovarian),GI50 (EKVX NSCLC),TGI (EKVX NSCLC),GI50 (RPMI-8226 leukemia),TGI (RPMI-8226 leukemia),TGI (SNB-75 CNS),GI50 (SNB-75 CNS)
C[n+]1c(-c2ccc(/C=N/NC(=O)c3ccc(C(=O)N/N=C/c4ccc(-c5cn6ccccc6[n+]5C)cc4)cc3)cc2)cn2ccccc21,623 µM,> 1000 µM,198 µM,362 µM,> 1000 µM,> 1000 µM,124 µM,283 µM,343 µM,> 1000 µM,119 µM,242 µM,281 µM,494 µM,> 1000 µM,> 1000 µM,121 µM,306 µM,–,–
CCOC(=N)CC(=O)Nc1cccc(Cl)c1,–,> 100 µM,–,–,–,> 100 µM,–,> 100 µM,–,–,–,–,–,> 100 µM,–,> 100 µM,–,–,> 100 µM,–
CN1CCN(Cc2ccc(NC(=O)c3cncc(C#Cc4cncc5nccnc45)c3)cc2C(F)(F)F)CC1,0.83 µM,4.33 µM,–,–,2.15 µM,32.8 µM,0.628 µM,> 50 µM,2.35 µM,10.1 µM,0.869 µM,4.59 µM,2.75 µM,13 µM,> 50 µM,> 50 µM,1.86 µM,10.6 µM,11.5 µM,5.04 µM
COc1c(-c2ccc(O)c(O)c2)oc2c(O)c(O)cc(O)c2c1=O,–,–,–,> 100 µM,–,> 100 µM,–,> 100 µM,–,76.1 µM,–,> 100 µM,–,> 100 µM,–,> 100 µM,–,> 100 µM,–,–
CCCCc1n(Cc2ccc3ccccc3c2)cc[n+]1Cc1ccc2ccccc2c1,–,–,–,–,1.28 µM,2.63 µM,–,–,–,–,1.31 µM,2.77 µM,1.38 µM,2.75 µM,–,–,–,–,2.4 µM,0.908 µM
COc1ccc(-c2cc(-c3cc(Cl)cc(Br)c3O)[nH]c(=O)n2)cc1,–,43.3 µM,–,34.7 µM,–,–,–,33.4 µM,–,–,–,–,–,38.8 µM,–,27.3 µM,–,49 µM,38.3 µM,–
Cc1ccc(NC(=S)SCCC(=O)O)cc1,–,> 100 µM,–,–,–,> 100 µM,–,> 100 µM,–,–,–,–,–,–,–,> 100 µM,–,> 100 µM,–,–
COc1cc2c(cc1OC)NC(=O)NC(Cc1ccc3c(c1)OCO3)CC2 (stereo unspecified),–,> 100 µM,–,> 100 µM,–,> 100 µM,–,–,–,–,–,–,–,> 100 µM,–,> 100 µM,–,> 100 µM,> 100 µM,–
CCN(CC)C(=O)N1CCN(C=S)CC1,–,> 100 µM,–,–,–,> 100 µM,–,> 100 µM,–,–,–,–,–,> 100 µM,–,> 100 µM,–,–,> 100 µM,–
CSc1nc(NC2OC(COC(C)=O)C(OC(C)=O)C(OC(C)=O)C2OC(C)=O)c(-c2csc(N)n2)c(=O)n1C (stereo unspecified),–,> 100 µM,–,63.1 µM,–,> 100 µM,–,81.7 µM,–,–,–,–,–,> 100 µM,–,–,–,> 100 µM,47.8 µM,–
Clc1ccc2nc(-c3ccccc3)nc(Cl)c2c1,–,–,–,50.3 µM,–,> 100 µM,–,> 100 µM,–,–,–,–,–,36.8 µM,–,> 100 µM,–,> 100 µM,59.5 µM,–
COc1ccc2c(c1)CC1c3c(ccc(OC)c3O)CC2N1C (stereo unspecified),–,32 µM,–,70.9 µM,–,> 100 µM,–,> 100 µM,–,–,–,–,–,> 100 µM,–,> 84.3 µM,–,53.2 µM,> 100 µM,–
CC1=C(Cl)C=CP(=O)(OC(C)C)C1 (stereo unspecified),–,> 100 µM,–,> 100 µM,–,> 100 µM,–,–,–,–,–,–,–,–,–,> 100 µM,–,> 100 µM,47.3 µM,–
COC(=O)C1C=NNC1C(=O)OC (stereo unspecified),–,> 100 µM,–,–,–,> 100 µM,–,> 100 µM,–,–,–,–,–,> 100 µM,–,> 100 µM,–,> 100 µM,> 100 µM,–
C/C(=N\NC(=S)N1CC2CCC(CC2)C1)c1cccc(C)n1,0.477 µM,5.55 µM,–,16.4 µM,< 0.0001 µM,15.9 µM,–,7.73 µM,–,–,–,17.8 µM,–,7.47 µM,0.326 µM,4.63 µM,0.16 µM,17.1 µM,13.1 µM,–
O=[N+]([O-])c1ccccc1C=NC12CC3CC(CC(C3)C1)C2,–,> 100 µM,–,> 100 µM,–,> 100 µM,–,> 100 µM,–,–,–,–,–,> 100 µM,–,> 100 µM,–,> 100 µM,> 100 µM,–
O=c1c(Br)cc2c(-c3ccccc3)c3cc(Br)c(O)c(Br)c3oc-2c1Br,–,> 100 µM,–,> 100 µM,–,> 100 µM,–,> 100 µM,–,> 100 µM,–,> 100 µM,–,> 100 µM,–,> 100 µM,–,> 100 µM,–,–
C=C(CC(=O)O)C(=O)O (tested in a mixture with another compound),> 50 µg/mL,> 50 µg/mL,> 50 µg/mL,> 50 µg/mL,> 50 µg/mL,> 50 µg/mL,> 50 µg/mL,> 50 µg/mL,> 50 µg/mL,> 50 µg/mL,> 50 µg/mL,> 50 µg/mL,> 50 µg/mL,> 50 µg/mL,40.6 µg/mL,> 50 µg/mL,> 50 µg/mL,> 50 µg/mL,–,–
O=C1Nc2ccccc2/C1=C\c1nc(C2CCN(S(=O)(=O)c3ccc(F)cc3)CC2)n2ccccc12,> 100 µM,> 100 µM,–,–,5.16 µM,> 100 µM,2.32 µM,21.1 µM,5.72 µM,> 100 µM,2.9 µM,60.8 µM,4.96 µM,> 100 µM,4.87 µM,> 100 µM,> 100 µM,> 100 µM,–,–
O=c1c(NO)c([N+](=O)[O-])cnn1-c1ccccc1,–,4.09 µM,–,13.9 µM,–,14 µM,–,16.5 µM,–,16.5 µM,–,–,–,13.3 µM,–,29.8 µM,–,34 µM,28.4 µM,–
